Data on 98 compounds can be found in ChEMBL document CHEMBL3507680, “University of Dundee, Gates Library screen for HepG2 cell viability”.

A short description of this data set: Human HepG2 cell viability assay in 384 well format. To be noted: HepG2 cells, read-out: Inhibition. In kind it is toxicity, cell-based. The arrangement: dose 125 nL, time 70.5 hour; cytotoxicity at 70.5 h: concentration not given beside the values.
With `COc1ccc2c(c1)OCC(CNC(=O)c1cnc(NC(C)C)nc1)C2` (stereo not drawn), the cytotoxicity at 70.5 h amounted to 12.5%.
In the case of `CS(=O)(=O)Cc1nc(CN2CCOc3ccccc3C2)cs1`, the cytotoxicity at 70.5 h was -6.97%.
As to `CC(=O)C1(c2ccccc2)CCN(C(=O)CC2CNCCO2)CC1` (stereo not drawn), the cytotoxicity at 70.5 h was -31.5%.
Consider `Cc1noc(C)c1CN(C)C(=O)CCOc1ccc(Cl)cc1`, for which the cytotoxicity at 70.5 h is -11.7%.
For `CC(C)C(=O)N1CCOC[C@H](Oc2ccc(C(F)(F)F)cc2)C1` the value was -1.93%; for `CC(C)OCc1ncn2c1CN(Cc1nccs1)CCC2`, -6.03%.
With `CCOC(=O)Cn1c(=O)nc(N)c2c(-c3ccc(OC)cc3)csc21`, the cytotoxicity at 70.5 h is -12.9%.
Take `O=C(c1ccccn1)N1CCCC2(CCN(c3ccsc3)C2=O)C1` (stereo not drawn): the cytotoxicity at 70.5 h is 12.8%.
Take `CN(C)[C@@H]1CO[C@H](CNC(=O)C2CCCC2)[C@H]1O`: the cytotoxicity at 70.5 h worked out at 6.3%.
For `CCc1ncc2c(n1)CN(C(=O)CNC(=O)C(C)C)C2` the value was 22.7%.
For `CCNCc1ccc(OCc2ccc3c(c2)OCCO3)cc1`, the cytotoxicity at 70.5 h came out at 22.5%.
On to `CCN1CCN(C(=O)C2CCOC2)c2ccccc21` (stereo not drawn), for which the cytotoxicity at 70.5 h amounted to 21%.
As to `COc1ccc(OCCCN(C)C(=O)C2CCCN2C(N)=O)cc1` (stereo not drawn), the cytotoxicity at 70.5 h was -3.9%.
In the case of `CC(C)CC(C)NCc1cccnc1N1CCOCC1` (stereo not drawn), the cytotoxicity at 70.5 h was determined as 19.8%.
Consider `O=C(CN(CC(O)c1ccc(F)cc1)C1CC1)NC(C1CC1)C1CC1` (stereo not drawn), for which the cytotoxicity at 70.5 h is -90.6%.
As for `CCN(c1ccccc1C(=O)O)S(=O)(=O)c1cccc2cccnc12`, the cytotoxicity at 70.5 h came to 1.89%.
As for `CC(C)n1cnnc1Cn1c(=O)ccc2ccccc21`, the cytotoxicity at 70.5 h is -2.43%.
As to `Cc1nc(CN2CCOC(c3nc(C(C)C)n[nH]3)C2)oc1C` (stereo not drawn), the cytotoxicity at 70.5 h is 6.2%.
`COCCN1C(=O)[C@H]2CC[C@@H]1CN(S(=O)(=O)c1cccc(Cl)c1)C2`: the cytotoxicity at 70.5 h was determined as 17.8%.
For `CCOC(=O)c1cc2c(=O)[nH]c(=O)n(CCc3ccccc3)c2nc1C` the value was -7.68%; for `Cc1cc(NC(=O)CN2CCc3c(nc(C(C)C)n3C)C2)n(C)n1`, -16.7%; for `Cc1nccn1Cc1nnc(C2CCN(c3ccncc3F)CC2)n1C`, 17.7%.
`COc1ccc(Cl)cc1S(=O)(=O)N1C[C@@H]2CC[C@H](C1)N(C)C2=O`: the cytotoxicity at 70.5 h was 6.39%.
For `Cc1ccc(-c2n[nH]cc2CN(Cc2nccn2C)C(C)C)cc1C`, the cytotoxicity at 70.5 h was -5.49%.
As to `COCC1(CNC(=O)[C@@]23CNC[C@@H]2CN(C2CCCC2)C3)CC1`, the cytotoxicity at 70.5 h was -3.2%.
As for `Cn1ccc(C(=O)Nc2nnc(-c3ccccn3)[nH]2)cc1=O`, the cytotoxicity at 70.5 h is -22.2%.
Consider `O=C(C[C@@H]1COC[C@H]2CN(Cc3cccnc3)C[C@@H]12)N1CCOCC1`, for which the cytotoxicity at 70.5 h amounted to 29.4%.
As for `O=C(N1CCCC1)N1CCn2c(nnc2C2CCCN2)C1` (stereo not drawn), the cytotoxicity at 70.5 h was -9.61%.
For `COC(=O)c1cccc(C(=O)N2CCCC(n3cncn3)C2)c1` (stereo not drawn), the cytotoxicity at 70.5 h was -8.97%.
`O=S(=O)(C1CC1)N1Cc2nccn2CC(Cn2cncn2)C1` (stereo not drawn): the cytotoxicity at 70.5 h is -4.4%.
Turning to `N#Cc1cccc(NC2CC(=O)N(CCCc3ccccc3)C2)n1` (stereo not drawn), the cytotoxicity at 70.5 h was -19.4%.
On to `O=C1COC2(CCN(Cc3cccs3)CC2)CN1c1ccsc1`, for which the cytotoxicity at 70.5 h is 1.63%.
Consider `Fc1cccc(N2CCCC3(C2)CN(c2cnccn2)CCO3)c1` (stereo not drawn), for which the cytotoxicity at 70.5 h is -5.22%.
Turning to `COc1cccc(CSc2nnc(C)n2CC(N)=O)c1`, the cytotoxicity at 70.5 h is -98.4%.
For `CN(C)C(=O)C1(CCCc2ccccn2)CCN1Cc1nccn1C` (stereo not drawn) the value was -6.27%.
Regarding `CC(C(=O)N1CCC(c2[nH]ncc2-c2ccccc2)CC1)n1cncn1` (stereo not drawn), the cytotoxicity at 70.5 h was -9.13%.
In the case of `O=C(Cn1ccc2ccc(Cl)cc21)NCc1ccc(C(=O)O)cc1`, the cytotoxicity at 70.5 h is -2.47%.
For `Cc1n[nH]cc1CNCC1(c2ccccc2Cl)CCOCC1` the value was -4.88%; for `CC(=O)N1CCN(c2ccccc2CNc2ccc(C)cn2)CC1`, -3.33%; for `CCOC(=O)[C@@H]1[C@@H](O)C(=O)N(C)C12CCN(C(=O)c1ccco1)CC2`, -4.06%.
As for `O=C(c1ccc(-n2cccn2)nc1)N1CCCC(c2cnccn2)C1` (stereo not drawn), the cytotoxicity at 70.5 h was -4.09%.
In the case of `Cc1cc(N2CCN(Cc3nccn3C)CC2)cc(C)n1`, the cytotoxicity at 70.5 h was found to be 18.4%.
Then `CC(C)n1ccnc1C1CCN(C(=O)c2ccccc2N(C)C)CC1`, with -2.41%.
`O=C(Cc1cc2c(cc1Br)OCCO2)NC1CCS(=O)(=O)C1` (stereo not drawn): the cytotoxicity at 70.5 h turned out to be 7.44%.
Then `CCNc1ncc(CN(CCN(C)C)Cc2ccc(C)s2)cn1`, with -7.34%.
For `O=C(C1CCOCC1)N1CCc2ncc(CN3CCOCC3)n2CC1`, the cytotoxicity at 70.5 h is -11.5%.
Turning to `c1csc(-c2noc(C3CN(Cc4ccc5c(c4)CCO5)C3)n2)c1`, the cytotoxicity at 70.5 h is -9.73%.
Regarding `CC(C)(O)c1cn(C2CCN(C(=O)CCC3CCCC3)CC2)nn1`, the cytotoxicity at 70.5 h was 27%.
For `CC(C)Cc1nnc2sc(-c3cc(C(C)C)n[nH]3)nn12` the value was 12.3%.
With `c1ccc(CN2CCC(CCNc3ncnc4c3CCNCC4)C2)cc1` (stereo not drawn), the cytotoxicity at 70.5 h was -2.61%.
On to `Cc1nn(C)c(C)c1NC(=O)Nc1cccnc1N1CCCC1`, for which the cytotoxicity at 70.5 h is -7.71%.
With `COc1ccc2nnc(CCCC(=O)NCCC3=CCCCC3)n2n1`, the cytotoxicity at 70.5 h was -4.24%.
Regarding `c1ccc2sc(N3CCCN(c4ncnc5c4CCNC5)CC3)nc2c1`, the cytotoxicity at 70.5 h was -7.26%.
On to `Cc1csc(C2CCCCN2C(=O)c2cc(C3CC3)[nH]n2)n1` (stereo not drawn), for which the cytotoxicity at 70.5 h was -2.5%.
For `COCC1(NC(=O)Nc2nc(C)ns2)CCCC1` the value was -13.9%; for `Cc1nonc1N1CCN(Cc2nc(CC3CC3)no2)CC1`, -2.56%; for `O=C(Nc1ccccc1CCO)c1cccc(CN2CC[C@H](O)C2)c1`, -8.22%.
Then `O=C1CCCc2occ(C(=O)N3CCCC4(CCNC4)C3)c21` (stereo not drawn), with -7.04%; and `CC(C)Cc1cc(NC(=O)c2ccccc2F)n(C)n1`, with -9.5%.
For `NC(=O)COc1ccc(CNC(=O)CN2CCc3ccccc32)cc1` the value was 0.272%; for `Cc1nnc2n1CCN(Cc1csc(CC(=O)N(C)C)n1)C2`, -13.5%; for `CCn1c(Cn2cncn2)nnc1C1CCN(C2CCNCC2)CC1`, -5.11%.
With `CC(=O)N1CCCC1c1cccc(Cc2ccccc2F)n1` (stereo not drawn), the cytotoxicity at 70.5 h worked out at 35.5%.
As for `Cc1csc(CCCNC(C)CC(=O)Nc2cccc(C)c2C)n1` (stereo not drawn), the cytotoxicity at 70.5 h was -4.67%.
Turning to `CNC(=O)c1ccc(-c2ccc(CNC(=O)COC)cc2)nc1C`, the cytotoxicity at 70.5 h was -10.8%.
Consider `CC[C@@H](C)[C@H](NC(=O)CCn1cc(C(C)=O)c2ccccc21)C(=O)O`, for which the cytotoxicity at 70.5 h is -6.89%.
With `Cc1csc(CN(C)C(C)C(=O)N2CCc3ccccc3C2)n1` (stereo not drawn), the cytotoxicity at 70.5 h is 11.5%.
Then `CC(NC(=O)CCCOc1ccccc1)c1nnc2n1CCCCC2` (stereo not drawn), with -20.9%; and `CC(C)CC(=O)N1CCN(Cc2csc(-c3ncccn3)n2)CC1`, with -5.3%.
In the case of `COC(=O)C(c1cc(F)ccc1F)N(C)C(=O)c1ccccn1` (stereo not drawn), the cytotoxicity at 70.5 h is -9.53%.
In the case of `CCN(CC1CCOC1)C(=O)Nc1ccc(OCC(F)(F)F)nc1` (stereo not drawn), the cytotoxicity at 70.5 h is -2.33%.
Take `CCn1cc(C(=O)NCC(OC)c2cccc(Cl)c2)cn1` (stereo not drawn): the cytotoxicity at 70.5 h was -2.35%.
Consider `O=C(Cn1cc(I)cn1)N1CCOCC1`, for which the cytotoxicity at 70.5 h was -3.24%.
In the case of `CC(Cn1cccn1)NCC(=O)N(C)Cc1ccsc1` (stereo not drawn), the cytotoxicity at 70.5 h stood at 35.4%.
In the case of `COc1ccc(S(=O)(=O)N2CCn3cnc(COCC4CC4)c3C2)cc1`, the cytotoxicity at 70.5 h came to 10.3%.
For `CCc1noc(CNc2c(F)cccc2-n2cccn2)n1` the value was -8.2%.
For `NC(=O)C1(c2cnccn2)CCCN1Cc1ccncc1` (stereo not drawn), the cytotoxicity at 70.5 h was -0.768%.
For `CCc1sc(C(=O)N2CCC(Nc3ccc(C)nn3)CC2)cc1C` the value was -14.5%.
As to `COC(=O)CN(C(=O)c1ccc(-n2ccnc2)cc1)C1CCCC1`, the cytotoxicity at 70.5 h stood at 27.9%.
For `Cc1nccn1[C@@H]1CC[C@@H](NC(=O)CCCn2cccn2)[C@H]1O`, the cytotoxicity at 70.5 h turned out to be 19.3%.
On to `CCc1ncc(C(=O)N2CCOCC2c2c(C)n[nH]c2C)s1` (stereo not drawn), for which the cytotoxicity at 70.5 h was -2.25%.
Regarding `c1ccc(-c2nnc3sc(CCN4CCCCCC4)nn23)cc1`, the cytotoxicity at 70.5 h was -11.1%.
`CNC(=O)c1cccc(NCCOc2ccc(CC#N)cc2)c1C`: the cytotoxicity at 70.5 h was -1.82%.
Take `NS(=O)(=O)NCc1cc(-c2ccc(C(F)(F)F)cc2)n[nH]1`: the cytotoxicity at 70.5 h was -5.31%.
`CC(=O)Nc1nc(C(=O)N2CCCC2c2noc(C)n2)cs1` (stereo not drawn): the cytotoxicity at 70.5 h was 6.71%.
In the case of `CCOc1ccc(C(=O)Nc2c(C)nc3cccc(C)n3c2=O)cc1`, the cytotoxicity at 70.5 h is -19.3%.
Take `Cc1cc(NC(=O)CN2CCCC2c2noc(C3CC3)n2)no1` (stereo not drawn): the cytotoxicity at 70.5 h was 1.09%.
For `O=C(Nc1ccccc1-c1ccccc1)NC1CCC2(C1)OCCO2` (stereo not drawn), the cytotoxicity at 70.5 h amounted to 27.5%.
For `COc1ccsc1C(=O)NC1CCN(c2ccc(C#N)cc2)CC1` the value was -5.67%.
As for `O=C(NC1CCCC1)N1CCCC(c2nccn2Cc2ccncc2)C1` (stereo not drawn), the cytotoxicity at 70.5 h is 0.665%.
On to `CO[C@H]1C[C@@H](O)C12CCN(C(=O)c1cccc(CCC(C)(C)O)c1)CC2`, for which the cytotoxicity at 70.5 h is -0.132%.
Turning to `O=C(NCCc1nc2ccccc2s1)c1coc(CN2CCOCC2)c1`, the cytotoxicity at 70.5 h is 5.71%.
Then `O=C(c1ccc[nH]1)N1CCc2c(cccc2S(=O)(=O)N2CCOCC2)C1`, with 29.8%.
For `COC(=O)C1CN(Cc2cc(F)ccc2Br)CCO1` (stereo not drawn), the cytotoxicity at 70.5 h was -3.09%.
For `Cc1nc2cc(OCc3nc(C(=O)NC(CO)CO)co3)ccc2s1`, the cytotoxicity at 70.5 h was -8.5%.
As for `COc1ccc(Cl)cc1CS(=O)(=O)CC(=O)N(C)Cc1ccccc1F`, the cytotoxicity at 70.5 h is -12.1%.
As for `Cc1nc(C)n(CC2CCCCN2Cc2cn3ccccc3n2)n1` (stereo not drawn), the cytotoxicity at 70.5 h is -19.3%.
Then `COCCOC(=O)N1C[C@H]2CC[C@@H]1CN(C1Cc3ccccc3C1)C2`, with -3.17%.
